Test results from ChEMBL document CHEMBL1201862, “PubChem BioAssay data set” (2004).
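The compound was tested at five concentrations on cells cultured in 96-well plates, with a 48-hour exposure period. At the GI50, growth is halved.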 Active and inactive are the calls of the source. No stated cut-off is given here; in the data, active = GI50 up to about 1.1 µM and inactive = higher.

Columns and labels:
Experiment in all cases: NCI anticancer screen, dose series, 48 h
RXF 631 = tested on: RXF 631
XF498 = tested on: XF498
DMS-273 = tested on: DMS-273
DMS-114 = tested on: DMS-114
KM-20L2 = tested on: KM-20L2
DLD-1 = tested on: DLD-1
M19-MEL = tested on: M19-MEL
HOP-18 = tested on: HOP-18

In the case of `N#C/C(=C\c1cccc(O)c1)C(N)=O`, the GI50 (RXF 631) is reported as > 100 µM (inactive), the GI50 (XF498) is reported as > 100 µM (inactive) and the GI50 (DMS-273) is reported as > 100 µM (inactive). For the same molecule, the GI50 (DMS-114) was > 100 µM (inactive), the GI50 (KM-20L2) was > 100 µM (inactive) and the GI50 (DLD-1) was > 100 µM (inactive). The GI50 (M19-MEL) was > 100 µM (inactive).
`Oc1cc(-c2ccccn2)nc2cc(F)ccc12` was tested, and the GI50 (HOP-18) was 40.4 µM (inactive), the GI50 (RXF 631) was > 100 µM (inactive) and the GI50 (KM-20L2) was > 100 µM (inactive). The GI50 (DLD-1) was 81.8 µM (inactive) and the GI50 (M19-MEL) was 56.6 µM (inactive).
In the case of `CC(=O)OC1COC(N2CCc3ccccc32)C(OC(C)=O)C1OC(C)=O` (stereo not given), the GI50 (HOP-18) is reported as > 100 µM (inactive), the GI50 (RXF 631) is reported as > 100 µM (inactive) and the GI50 (XF498) is reported as > 100 µM (inactive). The GI50 (DMS-273) was > 100 µM (inactive), the GI50 (DMS-114) was > 91.6 µM (inactive) and the GI50 (KM-20L2) was > 100 µM (inactive). For the same molecule, the GI50 (DLD-1) was > 100 µM (inactive) and the GI50 (M19-MEL) was > 100 µM (inactive).
`CC(C)=CC(=O)N1CCN(C(=O)C=C(C)C)CC1` was tested, and the GI50 (HOP-18) was > 100 µM (inactive), the GI50 (RXF 631) was > 100 µM (inactive) and the GI50 (XF498) was > 100 µM (inactive). For the same molecule, the GI50 (DMS-273) was > 100 µM (inactive), the GI50 (DMS-114) was > 100 µM (inactive) and the GI50 (KM-20L2) was > 100 µM (inactive). For the same molecule, the GI50 (DLD-1) was > 100 µM (inactive) and the GI50 (M19-MEL) was > 100 µM (inactive).
`CC(=O)NNc1nc(C)c(C(/C=C/c2ccc(Cl)cc2)=N\NS(=O)(=O)c2ccc(C)cc2)s1` was tested, and the GI50 (HOP-18) was > 100 µM (inactive), the GI50 (RXF 631) was > 100 µM (inactive) and the GI50 (XF498) was > 60.4 µM (inactive). For the same molecule, the GI50 (DMS-273) was > 100 µM (inactive), the GI50 (KM-20L2) was > 100 µM (inactive) and the GI50 (DLD-1) was > 100 µM (inactive). The GI50 (M19-MEL) was > 100 µM (inactive).
For `N#CC(C#N)=Cc1ccc(Oc2ccccc2)cc1`, the GI50 (HOP-18) was 33.4 µM (inactive), the GI50 (RXF 631) was 36.3 µM (inactive) and the GI50 (XF498) was 37.8 µM (inactive). The GI50 (DMS-273) was 18.3 µM (inactive), the GI50 (DMS-114) was 26.2 µM (inactive) and the GI50 (KM-20L2) was > 91.4 µM (inactive). The GI50 (DLD-1) was 14.1 µM (inactive) and the GI50 (M19-MEL) was 32 µM (inactive).
`O=C1C2C3CC(C4C5C=CC(C5)C34)C2C2C3CC(C12)C1C2C=CC(C2)C31` (stereo not given) was tested, and the GI50 (HOP-18) was > 100 µM (inactive), the GI50 (RXF 631) was > 100 µM (inactive) and the GI50 (XF498) was > 100 µM (inactive). For the same molecule, the GI50 (DMS-273) was > 100 µM (inactive), the GI50 (DMS-114) was > 100 µM (inactive) and the GI50 (KM-20L2) was > 100 µM (inactive). For the same molecule, the GI50 (DLD-1) was > 100 µM (inactive) and the GI50 (M19-MEL) was > 100 µM (inactive).
With `O=C(CC1C(=O)Nc2ccccc2[S+]1[O-])Nc1ccccc1` (stereo not given) the GI50 (HOP-18) was > 100 µM (inactive), the GI50 (RXF 631) was > 100 µM (inactive) and the GI50 (XF498) was > 100 µM (inactive). The GI50 (DMS-273) was > 100 µM (inactive), the GI50 (DMS-114) was > 100 µM (inactive) and the GI50 (KM-20L2) was > 100 µM (inactive). The GI50 (DLD-1) was > 100 µM (inactive) and the GI50 (M19-MEL) was > 100 µM (inactive).
For `COC(=O)CCC(NC(=S)N/N=C(\C)c1nccs1)C(=O)OC` (stereo not given), the GI50 (HOP-18) was 21.2 µM (inactive), the GI50 (RXF 631) was 58.2 µM (inactive) and the GI50 (XF498) was > 100 µM (inactive). For the same molecule, the GI50 (DMS-114) was 22.6 µM (inactive), the GI50 (KM-20L2) was 31.8 µM (inactive) and the GI50 (DLD-1) was 40.6 µM (inactive). The GI50 (M19-MEL) was 50.5 µM (inactive).
`COc1cc(CN[C@H]2CCc3cc(OC)c(OC)c(OC)c3-c3ccc(SC)c(=O)cc32)cc(OC)c1` was tested, and the GI50 (RXF 631) was < 0.01 µM (active), the GI50 (XF498) was 0.0596 µM (active) and the GI50 (DMS-273) was 0.0341 µM (active). The GI50 (DMS-114) was 0.0222 µM (active), the GI50 (KM-20L2) was 0.0206 µM (active) and the GI50 (DLD-1) was 0.0411 µM (active). For the same molecule, the GI50 (M19-MEL) was 0.0308 µM (active).
For `CC(C)[C@H](CCl)NC(=O)c1cccc(C(=O)N[C@H](CCl)C(C)C)n1` (stereo in doubt), the GI50 (RXF 631) was > 100 µM (inactive), the GI50 (XF498) was > 100 µM (inactive) and the GI50 (DMS-273) was > 100 µM (inactive). For the same molecule, the GI50 (DMS-114) was > 100 µM (inactive), the GI50 (KM-20L2) was > 100 µM (inactive) and the GI50 (DLD-1) was > 100 µM (inactive). The GI50 (M19-MEL) was > 100 µM (inactive).
